We go through six molecules from patent US20200061062A1, “INHIBITORS OF HUMAN PHOSPHATIDYLINOSITOL 3-KINASE DELTA” (ICOS Corporation, priority 2000, published 2020).

Data set [1] has as its target T1, PI3Kα (Homo sapiens, UniProt P42336).
T1 construct: His tag (pFastbac HTb vector) (N); FLAG; made in house; host or cells: Sf21 insect cells (baculovirus)
The experiment in a line: Biochemical assay using 200 μM ATP, Alpha.
Method: (§2) PI3Kδ catalyzes a phosphotransfer from γ-[^32P]ATP to PIP2/PS liposomes at the D3′ position of the PIP2 lipid inositol ring. This reaction is MgCl2 dependent and is quenched in high molarity potassium phosphate buffer pH 8.0 containing 30 mM EDTA. […] The reaction products (and all unlabelled products) are transferred to a 96-well, prewetted PVDF filter plate, filtered, and washed in high molarity potassium phosphate. Scintillant is added to the dried wells and the incorporated radioactivity is quantitated.
(§3) This dilution established a final concentration of 200 μM ATP in the reaction volume. The reaction was stopped with 150 μL quench buffer (1.0 M potassium phosphate pH 8.0, 30 mM EDTA). A portion of the quenched solution (180 μL) was then transferred to a PVDF filter plate (Millipore # MAIP NOB prewetted with sequential 200 μL washes of 100% methanol, water, and finally 1.0 M potassium phosphate pH 8.0 wash buffer).
(§4) The PVDF filter plate was aspirated under moderate vacuum (2-5 mm Hg), washed with 5×200 μL of wash buffer, and then dried by aspiration. The filter was subsequently blotted, allowed to air dry completely, and inserted into a Wallac counting cassette with 50 μL of Ecoscint scintillation cocktail added per well.
(§5) Subsequent selectivity assays were done similarly using the same 3× substrate stocks except they contained 0.05 mCi/mL γ[^32P]ATP and 3 mM PIP2. Subsequent selectivity assays also used the same 3× enzyme stocks, except they now contained 3 nM of any given PI3K isoform.
(§6) For all selectivity assays, the test compounds were weighed out and dissolved into 10-50 mM stocks in 100% DMSO (depending on their respective solubilities) and stored at −20° C. […] From these dilutions, 20 μL was added into the assay wells alongside water blanks used for the enzyme (positive) control and the no enzyme (background) control.
(§7) This selectivity protocol is identical to that described above, except the 3× stock ATP concentration was 600 μM.

The subject of data set [2] is Murine splenocytes (Balb/c). The experiment in a line: B cell proliferation in response to cell surface IgM stimulation. In kind it is cell-based. Particulars: Mus musculus, Splenocyte; stimulated B cell proliferation; read-out: Mouse BCR Stim (EC50). The gist of the method: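 Balb/c splenocytes (2×10^5/well, 10% FBS/RPMI) preincubated 30-60 min with inhibitor, then stimulated with goat F(ab′)2 anti-mouse IgM μ-chain at 25 μg/mL final. Cultured 3 days at 37° C., [^3H]-thymidine pulsed for final 4 h; incorporation counted as CPM. Values are EC50 (μM).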

Data set [3] relates to human neutrophils. The experiment in a line: Elastase exocytosis from neutrophils (fMLP-induced). In kind it is cell-based. The following applies: neutrophil (PMN) elastase release. In outline: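 Human blood neutrophils (Ficoll-Hypaque) treated with compound or DMSO, then stimulated 90 min at 37 °C with 1 μM fMLP plus 0.01 mg/mL cytochalasin B, 1.0 μM NaN3 and 5 μg/mL L-methionine. Supernatant elastase read at 410 nm over 2 h on MeO-suc-AAPV-pNA, normalized to uninhibited; EC50 in μM.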

In data set [4] the target is T2, PI3Kδ (Homo sapiens, UniProt O00329, S253N). The experiment in a line: Biochemical assay of PI3K potency and selectivity using 20 μM ATP, Delta. Further details: His tag (pFastbac HTb vector) (N); FLAG; made in house; host or cells: Sf21 insect cells (baculovirus). In outline: (§1)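 Lipid-kinase radiometric assay with γ-[32P]ATP (20 μM ATP) on PIP2/PS liposomes in 20 mM HEPES pH 7.4; the 3× substrate mix held […] and 6 μM liposomes.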

Data set [5] relates to human neutrophils. The experiment in a line: fMLP-induced human neutrophil migration. In kind it is cell-based. Particulars: neutrophil (PMN) migration, read-out: Human PMN Migration (EC50). How it is done: Neutrophils have the intrinsic capacity to migrate through tissues, and are one of the first cell types to arrive at the sites of inflammation or tissue injury. The effect of D-000 on neutrophil migration towards a concentration gradient of fMLP was measured. The day before the migration assays were performed, 6-well plates were coated with recombinant ICAM-1/Fc fusion protein (Van der Vieren et al., Immunity, 3:683-690 (1995)) (25 μg/mL in bicarbonate buffer, pH 9.3) and left overnight at 4° C. After washing, 1% agarose solution, in RPMI-1640 with 0.5% bovine serum albumin (BSA), was added to wells with or without an inhibitor, and plates were placed into a refrigerator before punching holes in the gelled agarose to create plaques (1 central hole surrounded by 6 peripheral ones per well).
Human neutrophils were obtained as described above, and resuspended in RPMI medium supplemented with 0.5% BSA at 5×10^6 cells/mL. After combining equal volumes of neutrophil suspension and medium (either with DMSO or a serial dilution of the test compound in DMSO), neutrophils were aliquoted into the peripheral holes, while the central hole received fMLP (5 μM). Plates were incubated at 37° C. in the presence of 5% CO2 for 4 hr, followed by termination of migration by the addition of 1% glutaraldehyde solution in D-PBS. After removing the agarose layer, wells were washed with distilled water and dried.
Analysis of neutrophil migration was conducted on a Nikon DIAPHOT® inverted microscope (1× objective) video workstation using the NIH 1.61 program. Using Microsoft Excel and Table Curve 4 (SSPS Inc., Chicago Ill.) programs, a migration index was obtained for each of the studied conditions. Migration index was defined as the area under a curve representing number of migrated neutrophils versus the net distance of migration per cell.
Using the methods described in Examples 3-5, above, compounds of the invention were tested for inhibitory activity and potency in assays of stimulated B and T cell proliferation, neutrophil (PMN) migration, and neutrophil (PMN) elastase release. In Table 4, the values shown are effective concentrations of the compound (EC50; μM). Where no value is given, no assay was performed.

Data set [6] addresses T3, PI3Kγ (Homo sapiens, UniProt P48736).
T3 construct: His tag (pFastbac HTb vector) (N); FLAG (N); made in house; host or cells: Sf21 insect cells (baculovirus)
The experiment in a line: Biochemical assay using 200 μM ATP, Gamma.
Method: as §2, §3, §4, §5, §6, §7

The target of data set [7] is T2, PI3Kδ. The experiment in a line: Biochemical assay using 200 μM ATP, Delta.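 Note: radiometric filter-binding assay: PI3Kδ transfers ³²P from γ-[³²P]ATP onto PIP2/PS liposomes, counted by scintillation, enzyme-only wells as positive control, no-enzyme wells as background.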
Method: as §2, §3, §4, §5, §6, §7
Data set [8] addresses T4, PI3Kβ (Homo sapiens, UniProt P42338).
T4 construct: His tag (pFastbac HTa vector) (N); FLAG (N); made in house; host or cells: Sf21 insect cells (baculovirus)
The experiment in a line: Biochemical assay using 200 μM ATP, Beta.

Data set [9] has as its target T4, PI3Kβ. The experiment in a line: Biochemical assay of PI3K potency and selectivity using 20 μM ATP, Beta. Particulars: 20 μM ATP; for Beta/Delta Ratio: ratio of IC50 values, > = hypothetical ratio with 100 μM substituted for the missing IC50; for IC50: read-out: Beta IC50. The gist of the method: as §1
Data set [10] deals with T1, PI3Kα. The experiment in a line: Biochemical assay of PI3K potency and selectivity using 20 μM ATP, Alpha. Particulars: for Alpha/Delta Ratio: ratio of IC50 values, > = hypothetical ratio with 100 μM substituted for the missing IC50; for remaining activity at 100 µM: read-out: percent activity remaining at 100 μM, 20 μM ATP, 100 μM compound did not inhibit by at least 50%. The gist of the method:
as §1

In the next data set the test system is T cell proliferation. The experiment in a line: Stimulated T cell proliferation (Mouse TCE Stim, Table 4). In kind it is cell-based. Particulars: read-out: Mouse TCE Stim (EC50).
The subject of a further data set is basophils. The experiment in a line: Basophil histamine release assay. In kind it is cell-based, human. How it is done:
Assessment of the effect of a compound of the invention on basophil function was tested using a conventional histamine release assay, generally in accordance with the method described in Miura et al., J Immunol, 162:4198-206 (1999). Briefly, enriched basophils were preincubated with test compounds at several concentrations from 0.1 nM to 1,000 nM, for 10 min at 37° C. Then, polyclonal goat antihuman IgE (0.1 μg/mL) or fMLP was added, and allowed to incubate for an additional 30 min. Histamine released into the supernatant was measured using an automated fluorometric technique. Two compounds were tested, shown below.

A further data set has as its system osteoclasts. The experiment in a line: Osteoclast function, pit depths on dentine slices. In kind it is cell-based, mouse. The following applies: inhibitor 100 nM + osteopontin (OPN) 25 μg/mL, 72 hr; two experiments; OPN alone 10 ± 0.5 and 9 ± 0.4. The protocol: To analyze the effect of the PI3Kδ inhibitor D-000 on osteoclasts, mouse bone marrow cells were isolated and differentiated them to osteoclasts by treating the cells with Macrophage Colony Stimulating Factor^−1 (mCSF^−1) and Osteoprotegerin Ligand (OPGL) in serum-containing medium (αMEM with 10% heat-inactivated FBS; Sigma) for 3 days. On day four, when the osteoclasts had developed, the medium was removed and cells were harvested. The osteoclasts were plated on dentine slices at 10^5 cells/well in growth medium, i.e., αMEM containing 1% serum and 2% BSA with […] and 10 ng/mL mCSF-1. After 3 hr, the medium was changed to 1% serum and 1% BSA, with or without osteopontin (25 μg/mL) and the PI3K inhibitors (100 nM). The medium was changed every 24 hours with fresh osteopontin and the inhibitors. At 72 hr, the medium was removed, and the dentine surfaces were washed with water to remove cell debris and stained with acid hematoxylin. Excess stain was washed and the pit depths were quantitated using confocal microscopy.

For data set [11], the target named is T3, PI3Kγ. The experiment in a line: Biochemical assay of PI3K potency and selectivity using 20 μM ATP, Gamma. The text has this:
Recombinant baculoviruses containing the above clones were generated using manufacturer's recommended protocol (Life Technologies). Baculoviruses expressing His-tagged p110α, p110γ, or p110δ catalytic subunit and p85 subunit were coinfected into Sf21 insect cells. To enrich the heterodimeric enzyme complex, an excess amount of baculovirus expressing p85 subunit was infected, and the His-tagged p110 catalytic subunit complexed with p85 was purified on nickel affinity column. […] In an alternate approach, p101 can be cloned into baculovirus, to permit coexpression with its preferred binding partner p110γ. […]

The mark [12] stands for this setting: 20 μM ATP, read-out: Delta IC50.
The mark [13] stands for this setting: stimulated T cell proliferation.

Where “and” joins values, the source holds several entries; their conditions need not be identical. Identical values can stand only once. Like-named read-outs stand apart in the source and are kept apart here.

T2 sequence (O00329 whole entry S253N): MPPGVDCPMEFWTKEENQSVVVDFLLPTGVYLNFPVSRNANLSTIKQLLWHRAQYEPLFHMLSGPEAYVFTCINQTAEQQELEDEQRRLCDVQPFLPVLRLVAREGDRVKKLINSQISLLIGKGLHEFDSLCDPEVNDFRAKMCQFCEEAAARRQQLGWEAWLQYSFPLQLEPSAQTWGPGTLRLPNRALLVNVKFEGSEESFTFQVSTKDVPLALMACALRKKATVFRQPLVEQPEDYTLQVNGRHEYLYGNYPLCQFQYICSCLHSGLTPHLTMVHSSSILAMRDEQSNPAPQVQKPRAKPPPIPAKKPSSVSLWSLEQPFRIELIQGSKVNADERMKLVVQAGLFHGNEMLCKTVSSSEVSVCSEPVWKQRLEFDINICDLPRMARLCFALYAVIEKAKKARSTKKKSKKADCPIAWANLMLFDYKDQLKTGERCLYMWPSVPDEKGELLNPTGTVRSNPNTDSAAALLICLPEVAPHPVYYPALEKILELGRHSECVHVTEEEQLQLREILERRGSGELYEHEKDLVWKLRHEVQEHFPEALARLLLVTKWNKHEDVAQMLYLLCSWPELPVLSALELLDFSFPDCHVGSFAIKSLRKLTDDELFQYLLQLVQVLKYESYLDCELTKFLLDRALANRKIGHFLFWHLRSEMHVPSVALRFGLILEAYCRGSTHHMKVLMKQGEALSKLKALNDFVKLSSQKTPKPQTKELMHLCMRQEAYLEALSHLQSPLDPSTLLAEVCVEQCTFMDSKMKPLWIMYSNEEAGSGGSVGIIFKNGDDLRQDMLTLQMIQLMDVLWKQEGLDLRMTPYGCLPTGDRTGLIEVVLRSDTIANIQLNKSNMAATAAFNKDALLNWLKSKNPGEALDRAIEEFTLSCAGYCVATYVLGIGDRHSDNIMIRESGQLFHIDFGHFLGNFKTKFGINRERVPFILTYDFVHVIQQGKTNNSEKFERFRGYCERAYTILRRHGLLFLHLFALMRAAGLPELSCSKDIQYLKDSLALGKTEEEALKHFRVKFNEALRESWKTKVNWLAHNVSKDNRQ
T2 sequence (P27986 whole entry partner): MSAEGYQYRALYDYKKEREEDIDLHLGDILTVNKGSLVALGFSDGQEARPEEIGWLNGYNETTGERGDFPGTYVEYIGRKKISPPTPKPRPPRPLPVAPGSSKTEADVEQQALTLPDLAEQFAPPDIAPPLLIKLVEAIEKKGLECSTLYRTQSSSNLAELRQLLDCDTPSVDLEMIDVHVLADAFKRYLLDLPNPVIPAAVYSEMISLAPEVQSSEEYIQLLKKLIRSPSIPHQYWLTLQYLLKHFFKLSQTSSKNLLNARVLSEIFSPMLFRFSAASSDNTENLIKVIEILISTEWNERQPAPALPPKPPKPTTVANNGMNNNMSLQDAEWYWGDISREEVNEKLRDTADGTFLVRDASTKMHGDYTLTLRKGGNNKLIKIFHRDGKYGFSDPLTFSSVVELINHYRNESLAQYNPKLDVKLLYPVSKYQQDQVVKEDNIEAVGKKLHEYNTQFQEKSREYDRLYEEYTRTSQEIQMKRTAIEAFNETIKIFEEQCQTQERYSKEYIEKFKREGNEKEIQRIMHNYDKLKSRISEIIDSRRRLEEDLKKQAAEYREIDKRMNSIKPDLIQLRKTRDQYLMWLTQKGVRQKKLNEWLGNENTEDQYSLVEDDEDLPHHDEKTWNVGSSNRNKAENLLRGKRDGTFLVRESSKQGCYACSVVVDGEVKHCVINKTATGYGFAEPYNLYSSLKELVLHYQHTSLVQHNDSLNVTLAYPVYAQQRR
T1 sequence (P42336 whole entry): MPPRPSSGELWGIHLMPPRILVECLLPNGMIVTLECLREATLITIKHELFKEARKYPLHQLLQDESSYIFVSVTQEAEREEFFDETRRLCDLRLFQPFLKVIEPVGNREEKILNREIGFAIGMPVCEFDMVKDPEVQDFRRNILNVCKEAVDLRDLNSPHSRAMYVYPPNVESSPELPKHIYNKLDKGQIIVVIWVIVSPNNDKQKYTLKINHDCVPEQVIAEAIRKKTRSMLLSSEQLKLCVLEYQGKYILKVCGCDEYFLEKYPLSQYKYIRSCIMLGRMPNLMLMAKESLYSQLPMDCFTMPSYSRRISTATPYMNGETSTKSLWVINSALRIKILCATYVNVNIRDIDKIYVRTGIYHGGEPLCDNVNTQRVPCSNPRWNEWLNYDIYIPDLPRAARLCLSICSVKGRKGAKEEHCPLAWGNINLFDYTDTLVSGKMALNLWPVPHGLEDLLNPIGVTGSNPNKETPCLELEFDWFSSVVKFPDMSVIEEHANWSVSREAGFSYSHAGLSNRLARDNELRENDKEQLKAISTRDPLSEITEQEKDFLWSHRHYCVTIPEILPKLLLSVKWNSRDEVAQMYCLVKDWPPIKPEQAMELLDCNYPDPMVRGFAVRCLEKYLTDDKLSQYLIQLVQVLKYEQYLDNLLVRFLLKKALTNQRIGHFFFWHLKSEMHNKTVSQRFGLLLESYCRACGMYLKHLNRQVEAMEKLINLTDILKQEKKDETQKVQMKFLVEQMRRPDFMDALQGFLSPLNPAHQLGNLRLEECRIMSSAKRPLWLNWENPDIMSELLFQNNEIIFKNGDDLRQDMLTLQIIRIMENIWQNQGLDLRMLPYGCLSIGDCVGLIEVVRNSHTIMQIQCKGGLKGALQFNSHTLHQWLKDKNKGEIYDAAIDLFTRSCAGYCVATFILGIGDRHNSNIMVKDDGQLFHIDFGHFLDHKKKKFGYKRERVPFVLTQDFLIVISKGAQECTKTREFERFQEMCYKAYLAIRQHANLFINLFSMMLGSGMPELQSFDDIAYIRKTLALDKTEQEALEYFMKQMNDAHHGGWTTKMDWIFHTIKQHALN
T1 sequence (P27986 whole entry partner): as the sequence (P27986 whole entry partner) above
T4 sequence (P42338 whole entry): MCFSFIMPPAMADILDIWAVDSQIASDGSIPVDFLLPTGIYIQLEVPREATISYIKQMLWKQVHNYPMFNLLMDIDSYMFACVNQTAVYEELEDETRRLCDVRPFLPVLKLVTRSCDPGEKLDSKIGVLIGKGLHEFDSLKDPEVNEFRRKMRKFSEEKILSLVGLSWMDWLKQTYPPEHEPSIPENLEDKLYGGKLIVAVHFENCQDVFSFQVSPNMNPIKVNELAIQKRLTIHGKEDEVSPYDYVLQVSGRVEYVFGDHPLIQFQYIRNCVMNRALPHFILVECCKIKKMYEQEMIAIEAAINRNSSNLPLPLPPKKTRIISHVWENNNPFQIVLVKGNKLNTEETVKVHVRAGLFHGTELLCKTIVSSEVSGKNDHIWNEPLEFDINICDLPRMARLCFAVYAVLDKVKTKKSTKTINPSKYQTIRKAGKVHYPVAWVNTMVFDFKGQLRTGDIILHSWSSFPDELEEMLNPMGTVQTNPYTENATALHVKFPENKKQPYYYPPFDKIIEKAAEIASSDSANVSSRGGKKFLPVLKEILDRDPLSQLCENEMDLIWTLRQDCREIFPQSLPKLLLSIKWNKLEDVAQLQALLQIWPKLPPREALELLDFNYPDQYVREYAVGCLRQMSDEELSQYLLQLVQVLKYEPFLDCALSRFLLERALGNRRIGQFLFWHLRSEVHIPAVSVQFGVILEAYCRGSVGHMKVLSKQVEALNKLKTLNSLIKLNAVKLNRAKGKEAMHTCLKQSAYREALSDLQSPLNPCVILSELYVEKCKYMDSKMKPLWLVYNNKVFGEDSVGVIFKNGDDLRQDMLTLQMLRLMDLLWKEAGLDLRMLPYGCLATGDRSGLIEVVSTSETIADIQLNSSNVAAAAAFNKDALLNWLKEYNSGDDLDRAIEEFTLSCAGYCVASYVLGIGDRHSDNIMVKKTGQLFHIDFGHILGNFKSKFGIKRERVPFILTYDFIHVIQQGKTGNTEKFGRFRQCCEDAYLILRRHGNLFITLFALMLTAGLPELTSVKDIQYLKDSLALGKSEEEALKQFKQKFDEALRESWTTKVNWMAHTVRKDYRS
T4 sequence (P27986 whole entry partner): as the sequence (P27986 whole entry partner) above
T3 sequence (P48736 whole entry): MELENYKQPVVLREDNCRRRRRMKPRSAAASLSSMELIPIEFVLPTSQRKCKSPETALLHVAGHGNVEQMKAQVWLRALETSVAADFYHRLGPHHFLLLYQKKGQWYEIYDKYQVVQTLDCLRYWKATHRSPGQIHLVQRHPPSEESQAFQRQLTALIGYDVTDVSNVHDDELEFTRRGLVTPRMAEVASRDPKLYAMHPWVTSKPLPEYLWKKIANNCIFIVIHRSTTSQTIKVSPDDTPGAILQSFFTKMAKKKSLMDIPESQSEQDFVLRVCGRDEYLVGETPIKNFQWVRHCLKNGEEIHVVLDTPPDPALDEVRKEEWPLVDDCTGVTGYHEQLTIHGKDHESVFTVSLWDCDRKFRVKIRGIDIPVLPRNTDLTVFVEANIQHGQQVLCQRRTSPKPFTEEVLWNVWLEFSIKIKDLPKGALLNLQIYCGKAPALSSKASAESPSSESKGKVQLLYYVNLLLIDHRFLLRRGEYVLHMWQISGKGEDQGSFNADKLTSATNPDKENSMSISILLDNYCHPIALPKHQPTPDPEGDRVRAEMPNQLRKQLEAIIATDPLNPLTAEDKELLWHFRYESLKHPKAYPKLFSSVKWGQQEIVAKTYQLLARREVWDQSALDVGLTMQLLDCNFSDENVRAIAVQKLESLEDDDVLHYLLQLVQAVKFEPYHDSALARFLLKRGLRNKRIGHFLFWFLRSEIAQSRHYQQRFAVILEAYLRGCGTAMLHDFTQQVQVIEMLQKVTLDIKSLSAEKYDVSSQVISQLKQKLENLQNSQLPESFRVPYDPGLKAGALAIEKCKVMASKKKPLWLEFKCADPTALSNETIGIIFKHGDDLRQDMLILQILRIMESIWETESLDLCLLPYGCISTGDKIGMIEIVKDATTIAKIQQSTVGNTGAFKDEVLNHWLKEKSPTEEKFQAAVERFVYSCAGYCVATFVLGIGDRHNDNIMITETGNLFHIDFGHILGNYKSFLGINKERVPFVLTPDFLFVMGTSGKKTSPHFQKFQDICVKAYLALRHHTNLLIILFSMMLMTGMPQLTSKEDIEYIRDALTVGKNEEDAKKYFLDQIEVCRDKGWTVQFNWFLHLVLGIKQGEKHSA

What is called remaining activity is the signal under treatment as a percentage of the control signal. Consider `O=c1c2ccccc2nc(CSc2ncnc3[nH]cnc23)n1Cc1ccccc1` [Compound D-037, 3-benzyl-2-(9H-purin-6-ylsulfanylmethyl)-3H-quinazolin-4-one], for which the results for the “Alpha/Delta Ratio” value at PI3Kα [1] and at PI3Kα [10] (20 μM ATP) were 64 and above 125, respectively. The EC50 in data set [2] turned out to be 1200 ± 400 nM; with human neutrophils [3], 1300 ± 400 nM; in the data set with human neutrophils [5], 2000 nM. Moreover, the IC50 at PI3Kδ [4] (setting [12]) was 800 nM; at PI3Kγ [6] it was 45000 nM; at PI3Kδ [7], 3500 nM; at PI3Kβ [9], 80000 nM. Besides, the “Gamma/Delta Ratio” value at PI3Kγ [6] worked out at 13. The figures for the “Beta/Delta Ratio” value at PI3Kβ [8] and at PI3Kβ [9] were 33 and 100, respectively. In addition, the remaining activity at 100 µM on PI3Kα [10] amounted to 64%.

For orientation: melting point means the temperature of the solid-liquid transition. Turning to `Cc1cccc2nc(Cn3cnc4c(N)ncnc43)n(-c3ccccc3C(C)C)c(=O)c12` [Compound D-029, 2-(6-Aminopurin-9-ylmethyl)-3-(2-isopropylphenyl)-5-methyl-3H-quinazolin-4-one], the melting point was 258 to 258.2 °C. For the same molecule, the “Alpha/Delta Ratio” value on PI3Kα [1] amounted to 653. Further, in the data set on T cell proliferation (setting [13]), the EC50 turned out to be 3400 ± 2000 nM. The EC50 in data set [2] stood at 100 ± 30 nM. Moreover, the EC50 in the data set on human neutrophils [3] came to 500 ± 600 nM. Moreover, the IC50 on PI3Kδ [4] (setting [12]) came out at 60 nM. Moreover, the EC50 in the data set with human neutrophils [5] was 300 nM. Further, at PI3Kγ [6], the “Gamma/Delta Ratio” value was 37 and the IC50 amounted to 13000 ± 700 nM. Also, the IC50 on PI3Kδ [7] worked out at 340 ± 80 nM. Further, on PI3Kβ [8], the “Beta/Delta Ratio” value amounted to 101 and the IC50 turned out to be 34000 ± 4000 nM. For the same molecule, at PI3Kβ [9], the “Beta/Delta Ratio” value worked out at 54 and the IC50 was determined as 3000 nM. At PI3Kα [10] (20 μM ATP), the “Alpha/Delta Ratio” value was found to be 882. Moreover, the IC50 at PI3Kα [10] (20 μM ATP, read-out: Alpha IC50) is 49000 nM.

A word on the inhibition: it is the share of the control response that was lost under treatment. A high value points to a strong effect. Take `O=c1cc(N2CCOCC2)oc2c(-c3ccccc3)cccc12` [LY294002, reference compound]: the EC50 in [2] was 900 ± 500 nM. For the same molecule, in the data set on basophils (Homo sapiens, at the highest concentration, 10,000 nM), the inhibition at 10 µM is around 100%. Besides, the IC50 is 230 nM at PI3Kδ [4] (setting [12]); 300 to 1000 nM on PI3Kδ [4] (Example 2 assay conditions, read-out: IC50, δ isoform of PI3K (FIG. 1)); 2100 ± 1500 nM against PI3Kδ [7]. In addition, the “Pit depths (osteoclast activity), Table 1” value in the data set on osteoclasts was 4.6 ± 0.22 and 5.8 ± 0.5.

For the molecule `Cc1cccc2nc(CSc3ncnc4[nH]cnc34)n(-c3ccccc3Cl)c(=O)c12` [Compound D-026, 3-(2-Chlorophenyl)-5-methyl-2-(9H-purin-6-ylsulfanylmethyl)-3H-quinazolin-4-one], the melting point is 227.8 to 230.1 °C (dec.). The EC50 with T cell proliferation (T-cell) is 3500 nM. The EC50 in data set [2] stood at 300 ± 100 nM. In the data set on human neutrophils [3], this molecule yielded an EC50 of 200 ± 200 nM. Further, in the data set with basophils (Homo sapiens, read-out: EC50, suppression of histamine release), the EC50 is around 25 nM. Besides, the “Suppression of histamine release” value in the data set with basophils (anti-IgE, at 1,000 nM) is reported as around 100%. For the same molecule, the “Effect on histamine release, basophils stimulated with fMLP” value with basophils (fMLP stimulus) is listed as “Neither compound elicited any effect”. Also, on PI3Kδ [4] (setting [12]), the IC50 turned out to be 80 nM. Further, the EC50 in the data set on human neutrophils [5] was determined as 300 ± 300 nM. In addition, the IC50 against PI3Kγ [6] was 13000 ± 10000 nM. On PI3Kδ [7], the IC50 was 380 ± 200 nM. Besides, the IC50 against PI3Kγ [11] turned out to be 1700 nM.

Consider `COC[C@H]1OC(=O)c2coc3c2[C@@]1(C)C1=C(C3=O)[C@@H]2CCC(=O)[C@@]2(C)C[C@H]1OC(C)=O` [Wortmannin, wortmannin], for which the “Pit depths (osteoclast activity), Table 1” value in the data set with osteoclasts was 5.7 ± 0.6 and 5 ± 0.5.

`COc1ccccc1-n1c(CSc2ncnc3[nH]cnc23)nc2ccccc2c1=O` [Compound D-036, 3-(2-methoxyphenyl)-2-(9H-purin-6-ylsulfanylmethyl)-3H-quinazolin-4-one]: the “Alpha/Delta Ratio” value is reported as 48 at PI3Kα [1] and above 226 at PI3Kα [10] (20 μM ATP). The EC50 in the data set on T cell proliferation (setting [13]) was found to be 4100 nM; in data set [2], 900 ± 40 nM; in the data set on human neutrophils [3] it was 5500 ± 5000 nM; in the data set on human neutrophils [5] it was 200 nM. For the same molecule, the “Gamma/Delta Ratio” value at PI3Kγ [6] is given as 18. Moreover, the IC50 against PI3Kγ [6] came out at 72000 nM; against PI3Kδ [7] it was 4100 nM. Also, the “Beta/Delta Ratio” value is 36 on PI3Kβ [8] and 69 at PI3Kβ [9]. The remaining activity at 100 µM on PI3Kα [10] is 63%.
